Experimental data taken from article PMC5762859, “Distribution analysis of epertinib in brain metastasis of HER2-positive breast cancer by imaging mass spectrometry and prospect for antitumor activity” (Scientific Reports, 2018).

Experiments:
[1] = molecular target: T1, breast cancer resistance protein (BCRP) (Homo sapiens, UniProt Q9UNQ0); assay: BCRP substrate assessment; assay type: in vitro ADME; settings: from permeability and efflux ratio across Caco-2 cell monolayers
T1 construct: permeability and efflux ratio of epertinib across Caco-2 cell monolayers; endogenous in cells; host or cells: Caco-2
T1 sequence (Q9UNQ0 1-655): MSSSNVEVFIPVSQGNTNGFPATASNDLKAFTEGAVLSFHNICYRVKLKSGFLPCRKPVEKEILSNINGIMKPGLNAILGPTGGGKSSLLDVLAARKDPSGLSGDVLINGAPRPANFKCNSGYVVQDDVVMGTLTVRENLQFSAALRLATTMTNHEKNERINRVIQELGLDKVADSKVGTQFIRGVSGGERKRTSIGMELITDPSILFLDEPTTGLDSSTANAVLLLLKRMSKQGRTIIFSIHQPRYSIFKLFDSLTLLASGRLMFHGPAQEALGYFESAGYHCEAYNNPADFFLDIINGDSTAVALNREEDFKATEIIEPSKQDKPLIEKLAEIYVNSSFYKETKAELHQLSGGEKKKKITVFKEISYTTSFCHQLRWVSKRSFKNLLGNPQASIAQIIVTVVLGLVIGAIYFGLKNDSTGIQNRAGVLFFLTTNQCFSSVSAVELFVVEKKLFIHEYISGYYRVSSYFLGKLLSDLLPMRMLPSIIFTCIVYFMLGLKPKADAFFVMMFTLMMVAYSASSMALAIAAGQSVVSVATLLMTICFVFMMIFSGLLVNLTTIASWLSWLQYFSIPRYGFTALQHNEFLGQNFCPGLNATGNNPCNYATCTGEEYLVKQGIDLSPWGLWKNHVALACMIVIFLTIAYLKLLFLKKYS

[2] = tested on: patients with solid tumors; parameters: method as in PMID 25434923, PMID 25434923, PMID 25434923; settings: phase I trials; cited from earlier work
[3] = tested on: HER2-positive metastatic breast cancer patients; settings: historical data, combination with trastzumab; cited from earlier work

| Compound | BCRP substrate [1] | Tolerability [2] | Objective response rate (ORR) [3] [%] |
| --- | --- | --- | --- |
| CC#CC(=NOCC1COCCN1)c1ccc2ncnc(Nc3ccc(OCc4cccc(F)c4)c(Cl)c3)c2c1 (stereo not drawn) [Epertinib] | not a substrate | well tolerated |  |
| CS(=O)(=O)CCNCc1ccc(-c2ccc3ncnc(Nc4ccc(OCc5cccc(F)c5)c(Cl)c4)c3c2)o1 [Lapatinib, N-{3-chloro-4-[(3-fluorobenzyl)oxy]phenyl}-6-[5-({[2-(methylsulfonyl)ethyl]amino}methyl)-2-furyl]-4-quinazolinamine, reference compound] |  |  | 10.3 |
